According to patent US20050163831A1, “Patch for transdermal administration” (Hisamitsu Pharmaceutical Co., Inc., priority 2002, published 2005):

Tests used:
[1] = permeability test through hairless mouse skin (flow-through cell); format: in vitro ADME; details: for maximum value of the permeability rate of the drug per unit area of the skin, base agent Acetone: 1% (w/v) solution in acetone as donor; for maximum value of the permeability rate of the drug per unit area of the skin, base agent Acetone / maximum value of the permeability rate of the drug per unit area of the skin, base agent IPM / maximum value of the permeability rate of the drug per unit area of the skin, base agent Liquid paraffin / maximum value of the permeability rate of the drug per unit area of the skin, base agent PG: extirpated hairless mouse dorsal skin, 37° C., up to 24 hours; for maximum value of the permeability rate of the drug per unit area of the skin, base agent IPM: saturated solution in isopropyl myristate (IPM) as donor; for maximum value of the permeability rate of the drug per unit area of the skin, base agent Liquid paraffin: saturated solution in liquid paraffin as donor; for maximum value of the permeability rate of the drug per unit area of the skin, base agent PG: saturated solution in propylene glycol (PG) as donor
Description: Preliminary Test 1 (permeability test through hairless mouse skin)
A permeability test through hairless mouse skin was conducted for the following 1-12 test solutions:
First, dorsal skin of a hairless mouse was extirpated, which was set to a flow-through cell (effective area: 1 cm^2) with facing the dermis side to the receptor side, where a water of 37° C. was circulating the periphery of the cell. Next, 1 mL of Test solution 1 was charged in a cell on the stratum corneum side of the skin as a donor solution. While using a mixed solution of 40% (v/v) polyethylene glycol 400/physiological saline as a receptor layer, sampling of the receptor solution was carried out at a speed of 5 mL/hour every 2 hours up to 24 hours. For receptor solutions obtained at respective times, the flow volume was measured precisely and the drug concentration was measured by using high-performance liquid chromatography. From the obtained measurement values of the flow volume and drug concentration, the permeability rate per 1 hour was calculated to obtain the maximum value of the permeability rate of the drug per unit area of the skin.

[2] = tested on: yeast-induced paw inflammation and nociception; assay: yeast-induced paw inflammation and nociception test in rats; format: in vivo; details: 100 μL of 3% (w/v) solution in acetone applied to footpad for 3 hours; measured 3 hours after yeast injection; p<0.01 vs control
From the text: Preliminary Test 2 (yeast-induced paw inflammation and nociception test in rats) First, SD male rats with weight of around 130 g were used to measure a pain threshold value (g) by using analgesimeter (Analgesy 7200, Ugo Basile) according to the method of Randall & […]. and […] method for measurement of analgesic activity on inflamed tissue. (1957) Arch. Int. Pharmacodyn. 4, 409-419], while defining removal reaction against pressure irritation to a right hind footpad as the index, and they were grouped such that there was no difference between the average pain threshold values of both groups. […] On the other hand, acetone was applied to the control group. After sufficient drying after the application, the rats were housed in separate cages without covering treatment. At this time, for the purpose of preventing oral drug intake, a collar was attached to all the rats including the control group. After 3 hours from the application described above, valdecoxib remaining at the applied site was wiped off with absorbent cotton having been dipped in slightly warm water and, immediately after the wipe, each 100 μL of a yeast suspension (20% Baker's Yeast) was injected subcutaneously to all the rats including the control group to induce inflammation. […] The obtained results are illustrated in FIG. 1.

[3] = tested on: carrageenin-induced paw edema; assay: carrageenin-induced paw edema test in rats; format: in vivo; details: 100 μL of 3% (w/v) solution in acetone applied to footpad for 3 hours; measured 3 hours after carrageenin; p<0.01 vs control
From the text: Preliminary Test 3 (carrageenin-induced paw edema test in rats)
First, SD male rats with weight of around 110 g were used to measure a paw volume (mL) of a right hind footpad by using a water-replacement type paw volume determining device (Model TK-101 CMP, MUROMACHI KIKAI) according to the method of Fujihira et al. [Fujihira Eichi, Screening no Hoho to Mondaiten—Adjuvant Kansetsuen ni yoru Koenshoyaku no Kenteiho (Methods and Problems of Screening—Assay of Antiinflammatory Agent by Adjuvant Arthritis) (1971) Oyo Yakuri (Pharmacometrics) 5,169-183], and they were grouped such that there was no difference between the average paw volume values of both groups. Next, each 100 μL of a 3% (w/v) solution of valdecoxib in acetone was applied to the right hind footpad. On the other hand, acetone was applied to the control group. After sufficient drying after the application, the rats were housed in separate cages without covering treatment. […] After additional 3 hours, the paw volume at the right hind footpad was measured again to calculate an edema ratio (%) according to the following edema ratio calculation method (calculation formula): Edema ratio (%)=[(paw volume after 3 hours from inflammation (mL)−paw volume at ordinary time (mL))/paw volume at ordinary time (mL))]×100 to evaluate the antiinflammatory effect of valdecoxib. […]

SMILES | maximum value of the permeability rate of the drug per unit area of the skin, base agent Acetone [1] | maximum value of the permeability rate of the drug per unit area of the skin, base agent IPM [1] | maximum value of the permeability rate of the drug per unit area of the skin, base agent Liquid paraffin [1] | maximum value of the permeability rate of the drug per unit area of the skin, base agent PG [1] | skin permeability (in words) ([1]; compared with celecoxib and rofecoxib, Table 1) | analgesic action (pain threshold value at right hind footpad, FIG. 1) [2] | antiinflammatory action (edema ratio, FIG. 2) [3]
CS(=O)(=O)c1ccc(C2=C(c3ccccc3)C(=O)OC2)cc1 [rofecoxib, 3-phenyl-4-(4-methylsulfonylphenyl)-2(5H)-furanone] | 0.09 μg/cm^2/hr | 0.00 μg/cm^2/hr | 0.00 μg/cm^2/hr | 0.00 μg/cm^2/hr | – | – | –
Cc1ccc(-c2cc(C(F)(F)F)nn2-c2ccc(S(N)(=O)=O)cc2)cc1 [celecoxib, 4-[5-(4-methylphenyl)-3-(trifluoromethyl)pyrazole-1-yl]benzolsulfonamide] | 0.3 μg/cm^2/hr | 2.04 μg/cm^2/hr | 0.00 μg/cm^2/hr | 0.90 μg/cm^2/hr | – | – | –
Cc1onc(-c2ccccc2)c1-c1ccc(S(N)(=O)=O)cc1 [valdecoxib, 4-(5-methyl-3-phenylisoxazole-4-yl)benzenesulfonamide] | 0.59 μg/cm^2/hr | 2.97 μg/cm^2/hr | 0.41 μg/cm^2/hr | 4.10 μg/cm^2/hr | very high skin permeability | significant analgesic action | significant antiinflammatory action
